Results on eleven compounds are retold here after US10246429B2, “Vinyl fluoride cyclopropyl fused thiazin-2-amine compounds as beta-secretase inhibitors and methods of use” (AMGEN INC., priority 2015, dated 2019).

One series has as its target BACE2 (Homo sapiens (Human), UniProt Q9Y5Z0). In words: In vitro enzymatic BACE2 FRET assay. It is filed as biochemical.
Series [1] addresses T1, BACE1 (Homo sapiens (Human), UniProt P56817). In words: BACE1 cell assay. It is filed as cell-based.
Target sequence in this assay (P56817 46-501, species assumed): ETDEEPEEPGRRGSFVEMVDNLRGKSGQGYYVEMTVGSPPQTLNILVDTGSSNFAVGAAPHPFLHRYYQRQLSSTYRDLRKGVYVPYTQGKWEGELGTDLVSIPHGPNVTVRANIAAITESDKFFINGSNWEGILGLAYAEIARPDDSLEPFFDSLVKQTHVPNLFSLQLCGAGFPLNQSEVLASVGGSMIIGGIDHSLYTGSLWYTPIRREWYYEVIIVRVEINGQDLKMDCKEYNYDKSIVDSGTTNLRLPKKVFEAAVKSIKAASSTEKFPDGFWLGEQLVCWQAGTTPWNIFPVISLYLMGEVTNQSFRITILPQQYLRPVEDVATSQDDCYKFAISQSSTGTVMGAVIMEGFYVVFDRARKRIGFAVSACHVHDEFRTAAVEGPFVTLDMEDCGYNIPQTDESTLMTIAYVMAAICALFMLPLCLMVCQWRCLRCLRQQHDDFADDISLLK
In another series the target is Cathepsin D (CatD) (Homo sapiens (Human), UniProt P07339). The series can be described thus: CatD assay. Type of series: biochemical. Conditions: read-out: IC50 IP (μM) CatD.
Chain of Cathepsin D (CatD) (P07339 65-412, species assumed): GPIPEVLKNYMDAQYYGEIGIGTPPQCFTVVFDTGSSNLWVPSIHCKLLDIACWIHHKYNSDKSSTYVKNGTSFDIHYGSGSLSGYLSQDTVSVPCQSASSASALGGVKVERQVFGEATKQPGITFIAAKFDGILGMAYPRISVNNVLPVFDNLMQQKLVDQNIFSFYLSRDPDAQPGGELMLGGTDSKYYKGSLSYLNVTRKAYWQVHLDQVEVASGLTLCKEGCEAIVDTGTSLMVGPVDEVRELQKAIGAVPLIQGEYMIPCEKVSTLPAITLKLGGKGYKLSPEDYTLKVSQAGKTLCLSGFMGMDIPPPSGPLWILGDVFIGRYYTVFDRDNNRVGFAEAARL
A further series deals with Aβ 40. In words: In vivo inhibition of beta-secretase: Aβ 40 reduction in rat CSF and brain.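 Further: male Sprague Dawley rats dosed orally in 2% HPMC, 1% Tween80 (pH 2.2) vehicle, Aβ40 quantified by sandwich ECL-based ELISA in CSF and brain supernatants.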 Conditions: after 4 hrs, versus vehicle.
Series [2] addresses T1, BACE1. In words: In vitro enzymatic BACE1 FRET assay. Type of series: biochemical.
Target sequence in this assay (P56817 46-501): as the sequence (P56817 46-501, species assumed) above
Text: (§1) In Vitro Enzymatic BACE1 and BACE2 FRET (Fluorescence Resonance Energy Transfer) Assays (Enzyme Assay Data in Table 1)
The target of series [3] is T1, BACE1. Conditions: cited from earlier work.
Target sequence in this assay (P56817 46-501): as the sequence (P56817 46-501, species assumed) above
The test system of series [4] is pigment epithelium of the rat's eye. Conditions: higher compound dose given for three months; cited from earlier work.
[5] abbreviates: read-out: IC50 IP (μM) BACE2 Enzyme.
The mark [6] stands for this setting: read-out: IC50 IP (μM) BACE1 Enzyme.
The mark [7] stands for this setting: read-out: IC50 IP (μM) BACE1 Cell.

Like-named read-outs stand apart in the source and are kept apart here.

Chain of BACE2 (Q9Y5Z0 63-518): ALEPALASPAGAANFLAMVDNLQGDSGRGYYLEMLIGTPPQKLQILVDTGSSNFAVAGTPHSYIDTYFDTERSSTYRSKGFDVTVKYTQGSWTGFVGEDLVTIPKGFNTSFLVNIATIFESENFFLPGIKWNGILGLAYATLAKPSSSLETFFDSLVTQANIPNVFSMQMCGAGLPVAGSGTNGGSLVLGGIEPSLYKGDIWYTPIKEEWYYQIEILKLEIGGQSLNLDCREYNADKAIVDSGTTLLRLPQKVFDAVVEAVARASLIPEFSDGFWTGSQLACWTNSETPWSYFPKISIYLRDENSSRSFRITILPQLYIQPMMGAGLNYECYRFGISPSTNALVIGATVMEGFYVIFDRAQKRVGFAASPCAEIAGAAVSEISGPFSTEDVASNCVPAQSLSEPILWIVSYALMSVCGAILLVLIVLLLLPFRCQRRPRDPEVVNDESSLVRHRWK
Text for Aβ 40: Several animal models, including mouse, rat, dog, and monkey, may be used to screen for inhibition of beta-secretase activity in vivo following administration of a test compound sample. […] A separate group of animals receive 2% hydroxypropyl methylcellulose, 1% Tween80 alone, containing no test compound, and serve as a vehicle-control group. At the end of the test period, animals are sacrificed and brain tissues, plasma or cerebrospinal fluid are collected. […] Homogenates are centrifuged at 355,000 g, 4° C. for 30 minutes. CSF or brain supernatants are then analyzed for the presence of Aβ by specific sandwich ELISA assays based on ECL (Electrochemiluminescence) technology. For example, rat Abeta40 is measured using biotinylated-4G8 (Signet) as a capture antibody and Fab40 (an in-house antibody specific to the C-terminal of Abeta40) as a detection antibody. […] Actual vehicles used: Oral: 2% HPMC, 1% Tween80, pH 2.2
Text for BACE2: as §1

With `CNC(=O)[C@]12C[C@H]1[C@@](C)(c1cc(/C=C(\F)c3ccc(C#N)cn3)ccc1F)N=C(N)S2` [Example 222, (1S,5S,6S)-3-amino-5-(5-((Z)-2-(5-cyanopyridin-2-yl)-2-fluorovinyl)-2-fluorophenyl)-N,5-dimethyl-2-thia-4-azabicyclo[4.1.0]hept-3-ene-1-carboxamide], the 50% inhibitory concentration (IC50) – broadly, the concentration that inhibits the measured activity by half – at BACE2 (setting [5]) was found to be 0.091 µM; against BACE1 [1], 0.0017 µM; at Cathepsin D (CatD) it was 429 µM; on BACE1 [2] (setting [6]), 0.0018 µM. Further, in the series on Aβ 40, the “% Aβ 40 reduction in rat CSF at 10 mpk” value amounted to 70%. Further, the “% Aβ 40 reduction in rat brain at 10 mpk” value in the series with Aβ 40 is recorded as 62%.
With `CNC(=O)[C@]12C[C@H]1[C@@](C)(c1cc(/C=C(\F)c3cnc(C#N)cn3)ccc1F)N=C(N)S2` [Example 223, (1S,5S,6S)-3-amino-5-(5-((Z)-2-(5-cyanopyrazin-2-yl)-2-fluorovinyl)-2-fluorophenyl)-N,5-dimethyl-2-thia-4-azabicyclo[4.1.0]hept-3-ene-1-carboxamide], the IC50 at BACE2 (setting [5]) was 0.08 µM; on BACE1 [1], 0.0022 µM; on Cathepsin D (CatD) it was 234 µM; at BACE1 [2] (setting [6]) it was 0.0018 µM. Further, the “% Aβ 40 reduction in rat CSF at 10 mpk” value in the series on Aβ 40 is reported as 64%. For the same compound, in the series with Aβ 40, the “% Aβ 40 reduction in rat brain at 10 mpk” value is 48%.
Consider `CC#CCOc1cnc(/C(F)=C/c2ccc(F)c([C@@]3(C)N=C(N)S[C@@]4(S(C)(=O)=O)C[C@H]43)c2)cn1` [Example 231, (1R,5S,6S)-5-(5-((Z)-2-(5-(but-2-yn-1-yloxy)pyrazin-2-yl)-2-fluorovinyl)-2-fluorophenyl)-5-methyl-1-(methylsulfonyl)-2-thia-4-azabicyclo[4.1.0]hept-3-en-3-amine], for which the IC50 amounted to 0.03 µM at BACE2 (setting [5]), 0.0029 µM at BACE1 [1] (setting [7]), 47.8 µM on Cathepsin D (CatD) and 0.0002 µM at BACE1 [2] (setting [6]). In addition, the “% Aβ 40 reduction in rat CSF at 10 mpk” value in the series on Aβ 40 came to 37%. In addition, the “% Aβ 40 reduction in rat brain at 10 mpk” value with Aβ 40 is on record as 26%.
With `CC#CCOc1cnc(/C(F)=C/c2ccc(F)c([C@@]3(C)N=C(N)S[C@@]4(C(N)=O)C[C@H]43)c2)cn1` [Example 241, (1S,5S,6S)-3-amino-5-(5-((Z)-2-(5-(but-2-yn-1-yloxy)pyrazin-2-yl)-2-fluorovinyl)-2-fluorophenyl)-5-methyl-2-thia-4-azabicyclo[4.1.0]hept-3-ene-1-carboxamide], the IC50 at BACE2 (setting [5]) is 0.115 µM; on BACE1 [1] (setting [7]), 0.0039 µM; on Cathepsin D (CatD), 165 µM; on BACE1 [2] (setting [6]) it was 0.0004 µM. Further, in the series with Aβ 40, the “% Aβ 40 reduction in rat CSF at 10 mpk” value turned out to be 45%. For the same compound, the “% Aβ 40 reduction in rat brain at 10 mpk” value with Aβ 40 was determined as 47%.
Consider `C#CCOc1cnc(/C(F)=C/c2cnc(F)c([C@@]3(C)N=C(N)S[C@@]4(C(=O)N5[C@H]6COC[C@H]5COC6)C[C@H]43)c2)cn1` [Example 284, ((1S,5S,6S)-3-amino-5-(2-fluoro-5-((Z)-2-fluoro-2-(5-(prop-2-yn-1-yloxy)pyrazin-2-yl)vinyl)pyridin-3-yl)-5-methyl-2-thia-4-azabicyclo[4.1.0]hept-3-en-1-yl)((1R,5R)-3,7-dioxa-9-azabicyclo[3.3.1]nonan-9-yl)methanone], for which the half-inhibitory concentration (IC50) against BACE2 was found to be 0.255 µM; on BACE1 [1] (setting [7]), 0.0035 µM; at Cathepsin D (CatD), 133 µM; at BACE1 [2], 0.0039 µM. Besides, in the series on Aβ 40, the “% Aβ 40 reduction in rat CSF at 10 mpk” value is on record as 14%. Also, the “% Aβ 40 reduction in rat brain at 10 mpk” value in the series with Aβ 40 worked out at 4%.
As for `COC[C@]12C[C@H]1[C@@](C)(c1cc(/C=C(\F)c3cnc(C#N)cn3)ccc1F)N=C(N)S2` [Example 299, 5-((Z)-2-(3-((1S,5S,6S)-3-amino-1-(methoxymethyl)-5-methyl-2-thia-4-azabicyclo[4.1.0]hept-3-en-5-yl)-4-fluorophenyl)-1-fluorovinyl)pyrazine-2-carbonitrile], the half-maximal inhibitory concentration (IC50) on BACE2 (setting [5]) stood at 0.259 µM; at BACE1 [1] (setting [7]) it was 0.0063 µM; at Cathepsin D (CatD), 491 µM; at BACE1 [2] (setting [6]), 0.0073 µM. The “% Aβ 40 reduction in rat CSF at 10 mpk” value in the series with Aβ 40 is reported as 71%. Moreover, in the series with Aβ 40, the “% Aβ 40 reduction in rat brain at 10 mpk” value is reported as 64%.
Regarding `C#CCOc1cnc(/C(F)=C/c2cnc(F)c([C@@]3(C)N=C(N)S[C@@]4(C(=O)N5CCOCC5)C[C@H]43)c2)cn1` [Example 301, ((1S,5S,6S)-3-amino-5-(2-fluoro-5-((Z)-2-fluoro-2-(5-(prop-2-yn-1-yloxy)pyrazin-2-yl)vinyl)pyridin-3-yl)-5-methyl-2-thia-4-azabicyclo[4.1.0]hept-3-en-1-yl)(morpholino)methanone], the half-inhibitory concentration (IC50) is 0.309 µM on BACE2 (setting [5]), 0.0045 µM against BACE1 [1], 177 µM on Cathepsin D (CatD) and 0.0018 µM at BACE1 [2] (setting [6]). Besides, the “% Aβ 40 reduction in rat CSF at 10 mpk” value in the series on Aβ 40 worked out at 48%. Further, the “% Aβ 40 reduction in rat brain at 10 mpk” value in the series on Aβ 40 came to 41%.
Consider `C#CCOc1cnc(/C(F)=C/c2ccc(F)c([C@@]3(C)N=C(N)S[C@@]4(C(=O)NCC(F)F)C[C@H]43)c2)cn1` [Example 302, (1S,5S,6S)-3-amino-N-(2,2-difluoroethyl)-5-(2-fluoro-5-((Z)-2-fluoro-2-(5-(prop-2-yn-1-yloxy)pyrazin-2-yl)vinyl)phenyl)-5-methyl-2-thia-4-azabicyclo[4.1.0]hept-3-ene-1-carboxamide], for which the concentration for half-maximal inhibition (IC50) was 0.109 µM at BACE2 (setting [5]), 0.0047 µM on BACE1 [1], 8.5 µM on Cathepsin D (CatD) and 0.0019 µM on BACE1 [2] (setting [6]). The “% Aβ 40 reduction in rat CSF at 10 mpk” value in the series with Aβ 40 is 62%. In addition, in the series with Aβ 40, the “% Aβ 40 reduction in rat brain at 10 mpk” value is given as 55%.
`C[C@@H]1[C@H](F)CCN1C(=O)[C@]12C[C@H]1[C@@](C)(c1cc(/C=C(\F)c3ccc(C#N)cn3)ccc1F)N=C(N)S2` [Example 307, 6-((Z)-2-(3-((1S,5S,6S)-3-amino-1-((2R,3R)-3-fluoro-2-methylpyrrolidine-1-carbonyl)-5-methyl-2-thia-4-azabicyclo[4.1.0]hept-3-en-5-yl)-4-fluorophenyl)-1-fluorovinyl)nicotinonitrile]: the concentration for half-maximal inhibition (IC50) on BACE2 (setting [5]) was 0.1 µM; on BACE1 [1] (setting [7]) it was 0.002 µM; at Cathepsin D (CatD), 11 µM; on BACE1 [2] (setting [6]) it was 0.002 µM. In addition, in the series with Aβ 40, the “% Aβ 40 reduction in rat CSF at 10 mpk” value was 67%. Also, the “% Aβ 40 reduction in rat brain at 10 mpk” value in the series with Aβ 40 was 59%.
In the case of `C[C@@]1(c2cc(-c3cncnc3)c(F)cc2F)CCSC(N)=N1` [LY2811376], on BACE1 [3] (in vivo), the safety and tolerability entry was “safe and well tolerated”. Moreover, the “Aβ reductions in lumbar CSF” value on BACE1 [3] (oral dosing of 30 or 90 mg) was “Prominent and long-lasting Aβ reductions”.
In the case of `C[C@@]1(c2cc(-c3cncnc3)c(F)cc2F)CCSC(N)=N1` [LY 2811376], the “eye toxicity finding in rat toxicology studies” value in series [4] is on record as “damaged the pigment epithelium of the rat's eye”.
